The text below walks through data of patent US9409876B2, “Bradykinin receptor antagonists and pharmaceutical compositions containing them” (DOMPE' FARMACEUTICI S.P.A., priority 2013, dated 2016).

The target of this experiment is T1, BKB1 receptors (Homo sapiens, UniProt P46663).
T1 construct: Human (IMR-90) lung fibroblast cells expressing native BKB1 receptors; endogenous in cells; host or cells: IMR-90 human lung fibroblasts, treated with human IL-1 to up-regulate BKB1
T1 sequence (P46663 1-353): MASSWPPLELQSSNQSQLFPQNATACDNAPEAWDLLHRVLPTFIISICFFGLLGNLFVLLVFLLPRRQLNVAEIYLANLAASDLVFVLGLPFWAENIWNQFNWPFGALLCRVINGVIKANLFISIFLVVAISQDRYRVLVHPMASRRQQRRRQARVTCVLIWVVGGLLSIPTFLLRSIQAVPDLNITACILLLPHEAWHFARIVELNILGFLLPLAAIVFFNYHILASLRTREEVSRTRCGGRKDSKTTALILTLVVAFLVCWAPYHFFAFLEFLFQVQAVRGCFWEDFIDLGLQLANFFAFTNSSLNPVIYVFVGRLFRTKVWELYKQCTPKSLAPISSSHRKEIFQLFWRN
As to the kind of experiment: Calcium Mobilization Assay (FLIPR), IMR-90 cells, BKB1. The experiment is classed as cell-based. To be noted: IL-1 induced IMR-90 cells, agonist desArg10-kallidin (DAKD). The method, then: Calcium Mobilization Assay (FLIPR)—Human (IMR-90) lung fibroblast cells expressing native BKB1 receptors were harvested by trypsinization and seeded into black wall/clear bottom 96-well plates (Costar 3904; Corning Life Sciences, Acton, Mass.) at approximately 13,000 cells/well. After 1 day incubation, cells were treated with human IL-1 (0.35 ng/ml) in 10% FBS/MEM for 2 h to up-regulate BKB1 receptors. Induced cells were loaded with fluorescent calcium indicator by incubation with 2.3 µM Fluo-4/acetoxymethyl ester (Invitrogen) at 37° C. for 1.5 h in the presence of an anion transport inhibitor (2.5 mM probenecid in 1% FBS/MEM). Extracellular dye was removed by washing with assay buffer (2.5 mM probenecid, 0.1% BSA in 20 mM HEPES/HBSS without bicarbonate or phenol red, pH 7.5) and cell plates were kept in the dark until used. Test compounds were assayed at eight concentrations in triplicate.
As to `COc1ccccc1CN(C(=O)c1ccc([N+](=O)[O-])cc1)C(C(=O)NCC1CCCO1)c1ccc(C)cc1` (stereo not drawn) [28 (mix), N-(2-methoxybenzyl)-4-nitro-N-{1-(4-methylphenyl)-2-oxo-2-[(tetrahydrofuran-2-ylmethyl)amino]ethyl}benzamide], the IC50 (usually the point on the concentration scale where inhibition reaches its midpoint) came to 3000 nM.
On to `COc1ccccc1CN(C(=O)Cn1ccnn1)[C@@H](C(=O)NC[C@H]1CCCO1)c1ccc(C)cc1` [Compound 30 (R,R), N-(2-methoxybenzyl)-N-{(1R)-1-(4-methylphenyl)-2-oxo-2-[(2R)-(tetrahydrofuran-2-ylmethyl)amino]ethyl}-2-(1H-1,2,3-triazol-1-yl)acetamide], for which the concentration for half-maximal inhibition (IC50) amounted to 11 nM.
For the compound `COc1ccccc1CN(C(=O)Cn1nnc2ccccc21)C(C(=O)NCC1CCCO1)c1ccc(C)cc1` (stereo not drawn) [1 (mix), 2-(1H-benzotriazol-1-yl)-N-(2-methoxybenzyl)-N-{1-(4-methylphenyl)-2-oxo-2-[(tetrahydrofuran-2-ylmethyl)amino]ethyl}acetamide], the IC50 turned out to be 1900 nM.
As to `COc1ccccc1CN(C(=O)c1ccc(F)cc1)C(C(=O)NCC1CCCO1)c1ccc(C)cc1` (stereo not drawn) [22 (mix), 4-fluoro-N-(2-methoxybenzyl)-N-{1-(4-methylphenyl)-2-oxo-2-[(tetrahydrofuran-2-ylmethyl)amino]ethyl}benzamide], the IC50 was determined as 8700 nM.
With `COc1ccccc1CN(C(=O)Cn1ccnn1)C(C(=O)NCC1CCCO1)c1ccc(C)cc1` (stereo not drawn) [30 (mix), N-(2-methoxybenzyl)-N-{1-(4-methylphenyl)-2-oxo-2-[(tetrahydrofuran-2-ylmethyl)amino]ethyl}-2-(1H-1,2,3-triazol-1-yl)acetamide], the IC50 came out at 68 nM.
The result for `COc1ccccc1CN(C(=O)CC(C)C)C(C(=O)NCC1CCCO1)c1ccc(C2CC2)cc1` (stereo not drawn) [52 (mix), N-(2-methoxybenzyl]-N-[1-(4-cyclopropylphenyl)-2-oxo-2-[(tetrahydrofuran-2-yl)methylamino]ethyl)-3-methylbutanamide] reads 63 nM; that for `Cc1ccc(C(C(=O)NCC2CCCO2)N(Cc2cccnc2)C(=O)Cc2ccccc2C)cc1` (stereo not drawn) [46 (mix), 2-(2-methylphenyl)-N-(pyridin-3-ylmethyl)-N-{1-(4-methylphenyl)-2-oxo-2-[(tetrahydrofuran-2-ylmethyl)amino]ethyl}acetamide], 11700 nM.
Regarding `COc1ccccc1CC(=O)N(Cc1ccccc1OC)C(C(=O)NCC1CCCO1)c1ccc(C)cc1` (stereo not drawn) [13 (mix)], the IC50 came out at 300 nM.
On to `COc1ccccc1CN(C(=O)c1ccc(O)cc1)C(C(=O)NCC1CCCO1)c1ccc(C)cc1` (stereo not drawn) [16 (mix), 4-hydroxy-N-(2-methoxybenzyl)-N-{1-(4-methylphenyl)-2-oxo-2-[(tetrahydrofuran-2-ylmethyl)amino]ethyl}benzamide], for which the IC50 was 1000 nM.
The result for `Cc1ccc(C(C(=O)NCC2CCCO2)N(Cc2cccc(C)c2)C(=O)CN(C)C)cc1` (stereo not drawn) [35 (mix), 2-(dimethylamino)-N-(3-methylbenzyl)-N-{1-(4-methylphenyl)-2-oxo-2-[(tetrahydrofuran-2-ylmethyl)amino]ethyl}acetamide] reads 1700 nM; that for `COc1ccccc1CN(C(=O)Cc1ccc(C)cc1)C(C(=O)NCC1CCCO1)c1ccc(C)cc1` (stereo not drawn) [19 (mix)], 1400 nM; that for `COc1ccccc1CN(C(=O)c1ccccc1[N+](=O)[O-])C(C(=O)NCC1CCCO1)c1ccc(C)cc1` (stereo not drawn) [26 (mix), N-(2-methoxybenzyl)-2-nitro-N-{1-(4-methylphenyl)-2-oxo-2-[(tetrahydrofuran-2-ylmethyl)amino]ethyl}benzamide], 14400 nM.
Regarding `Cc1ccc(C(C(=O)NCC2CCCO2)N(CC2CCCCC2)C(=O)Cc2c[nH]cn2)cc1` (stereo not drawn) [36 (mix), N-(cyclohexylmethyl)-2-(1H-imidazol-4-yl)-N-{1-(4-methylphenyl)-2-oxo-2-[(tetrahydrofuran-2-ylmethyl)amino]ethyl}acetamide], the 50% inhibitory concentration (IC50) was found to be 13800 nM.
Consider `COc1ccccc1CN(C(=O)Cc1ccc(F)cc1)C(C(=O)NCC1CCCO1)c1ccc(C)cc1` (stereo not drawn) [21 (mix)], for which the IC50 was 3500 nM.
As to `COc1ccccc1CN(C(=O)Cc1c[nH]cn1)C(C(=O)NCC1CCCO1)c1ccc(C)cc1` (stereo not drawn) [12 (mix), 2-(1H-imidazol-4-yl)-N-(2-methoxybenzyl)-N-{1-(4-methylphenyl)-2-oxo-2-[(tetrahydrofuran-2-ylmethyl)amino]ethyl}acetamide], the IC50 amounted to 98 nM.
Next, `COc1ccccc1CN(C(=O)C1CCC1)C(C(=O)NCC1CCCO1)c1ccc(C)cc1` (stereo not drawn) [25 (mix), N-(2-methoxybenzyl)-N-{1-(4-methylphenyl)-2-oxo-2-[(tetrahydrofuran-2-ylmethyl)amino]ethyl}cyclobutanecarboxamide]: 15700 nM; `COc1ccccc1CN(C(=O)c1ccco1)[C@@H](C(=O)NC[C@H]1CCCO1)c1ccc(C)cc1` [Compound 4 (R,R), N-(2-methoxybenzyl)-N-[(1R)-1-(4-methylphenyl)-2-oxo-2-{[(2R)tetrahydrofuran-2-ylmethyl]amino}ethyl]furan-2-carboxamide]: 358 nM; `COc1ccccc1CN(C(=O)Cc1ccc(N(C)C)cc1)C(C(=O)NCC1CCCO1)c1ccc(C)cc1` (stereo not drawn) [29 (mix), 2-[(4-dimethylamino)phenyl]-N-(2-methoxybenzyl)-N-{1-(4-methylphenyl)-2-oxo-2-[(tetrahydrofuran-2-ylmethyl)amino]ethyl}acetamide]: 2100 nM.
As for `COc1ccccc1CN(C(=O)C1CCCC1)C(C(=O)NCC1CCCO1)c1ccc(C)cc1` (stereo not drawn) [15 (mix), N-(2-methoxybenzyl)-N-{1-(4-methylphenyl)-2-oxo-2-[(tetrahydrofuran-2-ylmethyl)amino]ethyl}cyclopentanecarboxamide], the IC50 turned out to be 300 nM.
Consider `CCC(=O)N(Cc1ccccc1OC)C(C(=O)NCC1CCCO1)c1ccc(C)cc1` (stereo not drawn) [24 (mix), N-(2-methoxybenzyl)-N-{1-(4-methylphenyl)-2-oxo-2-[(tetrahydrofuran-2-ylmethyl)amino]ethyl}propanamide], for which the IC50 is 13200 nM.
As to `Cc1ccc(C(C(=O)NCC2CCCO2)N(Cc2cccc(C)c2)C(=O)C2CC2C)cc1` (stereo not drawn) [38 (mix), 2-methyl-N-(3-methylbenzyl)-N-{1-(4-methylphenyl)-2-oxo-2-[(tetrahydrofuran-2-ylmethyl)amino]ethyl}cyclopropanecarboxamide], the IC50 stood at 12700 nM.
As to `COc1ccccc1CN(C(=O)Cc1cccc(F)c1F)[C@@H](C(=O)NC[C@H]1CCCO1)c1ccc(C)cc1` [Compound 3 (R,R), 2-(2,3-difluorophenyl)-N-(2-methoxybenzyl)-N-{(1R)-1-(4-methylphenyl)-2-oxo-2-[(2R)-(tetrahydrofuran-2-ylmethyl)amino]ethyl}acetamide], the IC50 came to 540 nM.
Turning to `COc1ccccc1CN(C(=O)Cc1c(F)cccc1F)[C@@H](C(=O)NC[C@H]1CCCO1)c1ccc(C)cc1` [Compound 6 (R,R), 2-(2,6-difluorophenyl)-N-(2-methoxybenzyl)-N-{(1R)-1-(4-methylphenyl)-2-oxo-2-[(2R)-(tetrahydrofuran-2-ylmethyl)amino]ethyl}acetamide], the IC50 was 456 nM.
For the compound “N-(2-methoxybenzyl)-N-{(1S)-1-(4-methylphenyl)-2-oxo-2-[(2R)-(pyrrolidin-2-ylmethyl)amino]ethyl}-2-(1H-1,2,3-triazol-1-yl)acetate [55 (S,R)]”, the IC50 was 120 nM.
For the compound `CCC(CC)CN(C(=O)Cc1ccc(F)cc1)C(C(=O)NCC1CCCO1)c1ccc(C)cc1` (stereo not drawn) [42 (mix), N-(2-ethylbutyl)-2-(4-fluorophenyl)-N-{1-(4-methylphenyl)-2-oxo-2-[(tetrahydrofuran-2-ylmethyl)amino]ethyl}acetamide], the IC50 amounted to 9600 nM.
With `Cc1ccc(C(C(=O)NCC2CCCO2)N(CC2CCCCC2)C(=O)Cc2ccccc2)cc1` (stereo not drawn) [37 (mix), N-(cyclohexylmethyl)-2-phenyl-N-{1-(4-methylphenyl)-2-oxo-2-[(tetrahydrofuran-2-ylmethyl)amino]ethyl}acetamide], the IC50 amounted to 6200 nM.
Regarding `COc1ccccc1CN(C(=O)CCC(C)=O)C(C(=O)NCC1CCCO1)c1ccc(C)cc1` (stereo not drawn) [17 (mix), 4-oxo-N-(2-methoxybenzyl)-N-{1-(4-methylphenyl)-2-oxo-2-[(tetrahydrofuran-2-ylmethyl)amino]ethyl}pentanamide], the concentration for half-maximal inhibition (IC50) came to 1200 nM.
For `COc1ccccc1CN(C(=O)Cc1ccccc1)[C@@H](C(=O)NC[C@H]1CCCO1)c1ccc(C)cc1` [Compound 7 (R,R), N-(2-methoxybenzyl)-N-{(1R)-1-(4-methylphenyl)-2-oxo-2-[(2R)-(tetrahydrofuran-2-ylmethyl)amino]ethyl}-2-phenylacetamide], the IC50 came out at 200 nM.
Next, `COc1ccccc1CN(C(=O)Cn1ccc2ccccc21)C(C(=O)NCC1CCCO1)c1ccc(C)cc1` (stereo not drawn) [31 (mix), 2-(1H-indol-1-yl)-N-(2-methoxybenzyl)-N-{1-(4-methylphenyl)-2-oxo-2-[(tetrahydrofuran-2-ylmethyl)amino]ethyl}acetamide]: 268 nM; `COc1ccccc1CN(C(=O)CC(C)C)C(C(=O)NCC1CCCO1)c1ccc(C)cc1` (stereo not drawn) [8 (mix)]: 418 nM.
